“And” between values parts separate entries of the source, which are not always exact repeats. Identical values can stand only once.

Assay [1] is described as follows: Cleaning test on soiled aluminum panels, corn oil soil. To be noted: 0.05% alone in water, no matrix, 120° F., 90 seconds. Here is the method: (§1) A series of commercially available cleaners as well as certain surfactants and related compounds in water, alone, without a builder matrix were tested for cleaning performance. The cleaning effectiveness of each cleaner composition was tested follows: • 1. Soiled aluminum panels, 1″×4″, were used as the test specimens. […] Mineral oil and corn oil, each modified by the addition of 10% graphite, were used as the soils for each screening. Soil patches on the aluminum were deposited immediately before testing.
(§2) The test specimens were cleaned by low-impingement, continuously circulated aqueous working baths to determine chemical cleaning strength. The test also screened for foaminess. The continuous circulation promoted foam formation. Cleaning effectiveness was evaluated gravimetrically and the percentage of oily contaminant removed by the formulation was calculated by comparing soil weights before and after cleaning. This technique is a common procedure in analytic chemistry and will be familiar to those of skill in the art. The results of these experiments are summarized in Tables 1 and 3 as percent reduction of soil.

The nature of assay [2]: Cleaning test on soiled aluminum panels, mineral oil soil. The note with it: 0.05% alone in water, no matrix, 120° F., 90 seconds. Here is the method: as §1, §2

Regarding `OCCOCCOCc1ccccc1` [Surfactant #7, benzyl alcohol ethoxylate, C6H5CH2—O—(CH2—CH2—O)n—H, n=2], in assay [1], the “% reduction of soil, Corn Oil, single panel” value is 92.2% and 92.0% and 91.6%. For the same molecule, the “% reduction of soil, Min Oil, single panel” value in assay [2] is 98.9% and 100.0% (2×).

As to tri(propylene glycol) propyl ether, the “% reduction of soil, Corn Oil, single panel” value in assay [1] is 90.0% and 88.9% and 95.0%. Besides, in assay [2], the “% reduction of soil, Min Oil, single panel” value is 93.9% and 100.0% (2×).

(Values after patent publication US7923425B2, “Low-foaming, acidic low-temperature cleaner and process for cleaning surfaces” (Henkel AG & Co. KGaA, priority 2006, dated 2011).)
